{
  "source": "patent US20140283155A1",
  "about": "“REPRESSIBLE LETHAL SYSTEM FOR REGULATING INSECT POPULATIONS” (California Institute of Technology, priority 2013, published 2014)",
  "tested_on": "Drosophila melanogater",
  "assay": "Evaluation of VanDal system in biological control (in vivo functionality, survival of transgenic lines and progeny)",
  "conditions": "diet supplemented with a low dose vanillic acid",
  "source_text": "To engineer a dominant vanillic acid-repressible lethal system (VanDal system), a plasmid was constructed, in which the C-terminus of VanR was fused with the Herpes simplex virus transactivation domain VP16, generating a chimeric transcription factor (vanRTF) (as descried in Hagmann et al., 1997). The chimeric transcription factor VanR^TF was driven at high levels, in a ubiquitous pattern, using a baculovirus immediate early (iel) promoter separated by a baculovirus enhancer (hr5) (as described in Bossin et al., 2007). On the same plasmid, but facing in the opposite direction, VanO operator sequences were placed upstream of the P_hsp70^min promoter (as described in Amin et al., 1987), and the P_hsp70^min promoter drove the expression of toxin VP16. The vanillic acid-repressible lethal system resides in a single piggyback transposable element that also includes a positive selection marker gene, (Opie2-dsRed), to facilitate the identification of transgenic insects.\nIn this example, in vivo functionality of the VanDal system prepared according to the general procedure of Example 1 was evaluated in Drosophila melanogater, an insect model organism. […] To simulate a release into the wild, two crosses in the absence of vanillic acid were set up: 1) homozygous VanDal males mated separately to wildtype virgin females and 2) homozygous Vandal females mated separately to wildype males.",
  "data": [
    {"smiles": "COc1cc(C(=O)O)ccc1O", "note": "[vanillic acid, 4-hydroxy-3-methoxybenzoic acid]", "values": [
      {"measurement": "survival of transgenic VanDal lines", "value": "only survive when fed a diet supplemented with a low dose vanillic acid"}
    ]}
  ]
}
